Test results reported in paper doi:10.1101/2020.06.11.145995v1 (biorxiv, 2020).
Like-named read-outs stand apart in the source and are kept apart here.

How the values were obtained:
Assay in all cases: biochemical
[1] = target: PCTK2 (Homo sapiens, UniProt Q00537)
[2] = target: NDR2 (Homo sapiens, UniProt Q9Y2H1)
[3] = target: ULK1 (Homo sapiens, UniProt O75385)
[4] = target: PIK3C2G (Homo sapiens, UniProt O75747)
[5] = target: VEGFR2 (Homo sapiens, UniProt P35968)
[6] = target: ROCK1 (Homo sapiens, UniProt Q13464)
[7] = target: PLK4 (Homo sapiens, UniProt O00444)
[8] = target: TSSK1B (Homo sapiens, UniProt Q9BXA7)
Sequence of TSSK1B (Q9BXA7 whole entry): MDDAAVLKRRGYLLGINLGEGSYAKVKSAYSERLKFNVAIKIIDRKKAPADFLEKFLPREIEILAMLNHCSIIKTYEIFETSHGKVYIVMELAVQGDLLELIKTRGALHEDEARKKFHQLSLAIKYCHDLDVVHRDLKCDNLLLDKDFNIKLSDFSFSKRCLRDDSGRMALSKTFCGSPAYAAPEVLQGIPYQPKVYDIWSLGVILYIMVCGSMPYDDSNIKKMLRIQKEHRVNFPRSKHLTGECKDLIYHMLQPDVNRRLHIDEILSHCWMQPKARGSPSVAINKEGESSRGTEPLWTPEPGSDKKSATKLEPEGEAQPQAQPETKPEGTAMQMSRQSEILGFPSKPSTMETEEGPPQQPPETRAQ

[9] = target: PRKCE (Homo sapiens, UniProt Q02156)
Sequence of PRKCE (Q02156 whole entry): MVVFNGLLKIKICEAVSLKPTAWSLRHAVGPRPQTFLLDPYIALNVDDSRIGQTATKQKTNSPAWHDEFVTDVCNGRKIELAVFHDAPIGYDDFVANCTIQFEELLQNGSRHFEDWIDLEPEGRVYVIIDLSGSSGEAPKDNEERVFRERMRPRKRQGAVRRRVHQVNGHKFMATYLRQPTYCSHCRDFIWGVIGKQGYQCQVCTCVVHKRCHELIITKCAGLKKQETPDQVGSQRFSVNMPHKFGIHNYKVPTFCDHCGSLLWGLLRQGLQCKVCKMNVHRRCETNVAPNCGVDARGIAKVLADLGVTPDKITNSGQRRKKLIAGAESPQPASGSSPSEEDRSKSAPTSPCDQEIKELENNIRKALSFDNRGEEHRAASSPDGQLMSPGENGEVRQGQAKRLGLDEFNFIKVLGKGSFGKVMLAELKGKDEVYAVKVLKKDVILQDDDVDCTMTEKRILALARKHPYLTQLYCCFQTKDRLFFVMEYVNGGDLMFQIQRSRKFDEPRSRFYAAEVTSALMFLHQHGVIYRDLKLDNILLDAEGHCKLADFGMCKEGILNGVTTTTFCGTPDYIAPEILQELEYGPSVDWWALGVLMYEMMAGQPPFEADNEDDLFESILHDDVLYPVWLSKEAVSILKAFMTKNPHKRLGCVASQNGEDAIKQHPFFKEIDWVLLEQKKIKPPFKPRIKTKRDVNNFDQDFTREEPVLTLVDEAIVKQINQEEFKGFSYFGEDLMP

[10] = target: SGK3 (Homo sapiens, UniProt Q96BR1)
[11] = target: TLK1 (Homo sapiens, UniProt Q9UKI8)
[12] = target: PAK1 (Homo sapiens, UniProt Q13153)
[13] = target: QSK (Homo sapiens, UniProt Q9Y2K2)
[14] = target: TRKB (Homo sapiens, UniProt Q16620)
[15] = target: PIK3CA (Homo sapiens, UniProt P42336)
[16] = target: PLK2 (Homo sapiens, UniProt Q9NYY3)
[17] = target: PRKG1 (Homo sapiens, UniProt Q13976)
Sequence of PRKG1 (Q13976 whole entry): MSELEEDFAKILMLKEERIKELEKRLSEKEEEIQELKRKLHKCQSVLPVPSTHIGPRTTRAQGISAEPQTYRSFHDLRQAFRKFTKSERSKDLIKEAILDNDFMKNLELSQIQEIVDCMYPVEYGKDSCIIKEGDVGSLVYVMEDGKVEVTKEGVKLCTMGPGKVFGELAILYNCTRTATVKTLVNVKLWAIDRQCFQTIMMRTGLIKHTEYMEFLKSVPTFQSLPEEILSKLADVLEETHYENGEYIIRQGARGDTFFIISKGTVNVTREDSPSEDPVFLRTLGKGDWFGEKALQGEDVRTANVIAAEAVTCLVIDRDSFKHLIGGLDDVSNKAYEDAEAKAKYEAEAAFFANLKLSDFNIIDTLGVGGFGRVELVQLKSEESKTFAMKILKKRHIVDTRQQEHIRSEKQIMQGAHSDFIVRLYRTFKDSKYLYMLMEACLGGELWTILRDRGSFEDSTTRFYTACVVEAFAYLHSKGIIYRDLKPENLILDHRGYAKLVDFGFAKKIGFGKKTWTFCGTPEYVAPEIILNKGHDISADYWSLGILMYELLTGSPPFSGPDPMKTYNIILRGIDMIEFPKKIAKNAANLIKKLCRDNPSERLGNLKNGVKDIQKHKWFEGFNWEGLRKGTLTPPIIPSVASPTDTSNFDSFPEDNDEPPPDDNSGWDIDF

[18] = target: ROS1 (Homo sapiens, UniProt P08922)
[19] = target: NEK9 (Homo sapiens, UniProt Q8TD19)
[20] = target: TAOK2 (Homo sapiens, UniProt Q9UL54)
Sequence of TAOK2 (Q9UL54 whole entry): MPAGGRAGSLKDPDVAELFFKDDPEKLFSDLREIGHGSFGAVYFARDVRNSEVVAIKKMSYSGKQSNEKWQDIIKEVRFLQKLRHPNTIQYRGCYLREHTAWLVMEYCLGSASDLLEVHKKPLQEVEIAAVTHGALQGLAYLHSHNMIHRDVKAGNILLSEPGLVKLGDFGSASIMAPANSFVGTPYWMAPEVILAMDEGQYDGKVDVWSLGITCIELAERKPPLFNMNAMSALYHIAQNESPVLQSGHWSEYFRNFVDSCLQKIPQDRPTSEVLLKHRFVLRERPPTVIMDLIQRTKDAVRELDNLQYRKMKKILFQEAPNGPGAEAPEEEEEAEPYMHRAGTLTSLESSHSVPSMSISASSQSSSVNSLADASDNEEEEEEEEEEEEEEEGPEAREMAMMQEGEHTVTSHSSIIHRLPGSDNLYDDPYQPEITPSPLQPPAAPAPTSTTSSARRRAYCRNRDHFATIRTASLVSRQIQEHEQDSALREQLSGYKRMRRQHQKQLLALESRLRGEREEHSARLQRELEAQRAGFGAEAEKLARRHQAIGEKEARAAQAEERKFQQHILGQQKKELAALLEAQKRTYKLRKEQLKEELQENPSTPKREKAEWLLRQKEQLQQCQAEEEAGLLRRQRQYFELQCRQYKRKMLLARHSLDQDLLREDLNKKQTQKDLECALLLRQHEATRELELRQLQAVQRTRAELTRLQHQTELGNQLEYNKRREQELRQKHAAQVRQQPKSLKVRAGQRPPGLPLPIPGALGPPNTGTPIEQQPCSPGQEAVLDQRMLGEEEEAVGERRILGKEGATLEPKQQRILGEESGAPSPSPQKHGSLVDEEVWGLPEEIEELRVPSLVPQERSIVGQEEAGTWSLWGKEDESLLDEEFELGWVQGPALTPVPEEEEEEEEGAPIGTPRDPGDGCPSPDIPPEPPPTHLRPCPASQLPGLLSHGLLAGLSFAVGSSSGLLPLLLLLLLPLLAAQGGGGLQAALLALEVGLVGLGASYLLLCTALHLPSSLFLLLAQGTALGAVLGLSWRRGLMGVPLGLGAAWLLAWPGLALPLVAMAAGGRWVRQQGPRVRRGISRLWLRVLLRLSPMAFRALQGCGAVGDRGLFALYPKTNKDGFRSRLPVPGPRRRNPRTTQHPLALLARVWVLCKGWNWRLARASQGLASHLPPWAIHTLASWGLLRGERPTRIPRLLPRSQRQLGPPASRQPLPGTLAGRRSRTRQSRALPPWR

[21] = target: NEK7 (Homo sapiens, UniProt Q8TDX7)
[22] = target: RIPK2 (Homo sapiens, UniProt O43353)
[23] = target: SgK110 (Homo sapiens, UniProt P0C264)
[24] = target: PIK3CA(E545A) (Homo sapiens, UniProt P42336, E545A)
[25] = target: SNRK (Homo sapiens, UniProt Q9NRH2)
[26] = target: MKK7 (Homo sapiens, UniProt O14733)
Sequence of MKK7 (O14733 whole entry): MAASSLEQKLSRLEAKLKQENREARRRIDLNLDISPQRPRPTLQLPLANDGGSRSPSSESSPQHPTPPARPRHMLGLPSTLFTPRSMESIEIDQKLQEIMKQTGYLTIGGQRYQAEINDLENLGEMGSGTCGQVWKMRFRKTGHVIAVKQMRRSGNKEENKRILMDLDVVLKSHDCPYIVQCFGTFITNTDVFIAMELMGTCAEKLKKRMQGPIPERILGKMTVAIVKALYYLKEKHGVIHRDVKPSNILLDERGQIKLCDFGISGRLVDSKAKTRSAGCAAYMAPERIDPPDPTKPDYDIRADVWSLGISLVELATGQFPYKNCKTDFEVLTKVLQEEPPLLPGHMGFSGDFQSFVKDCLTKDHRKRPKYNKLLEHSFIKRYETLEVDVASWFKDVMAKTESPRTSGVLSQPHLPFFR

[27] = target: PDPK1 (Homo sapiens, UniProt O15530)
[28] = target: NDR1 (Homo sapiens, UniProt Q15208)
Sequence of NDR1 (Q15208 whole entry): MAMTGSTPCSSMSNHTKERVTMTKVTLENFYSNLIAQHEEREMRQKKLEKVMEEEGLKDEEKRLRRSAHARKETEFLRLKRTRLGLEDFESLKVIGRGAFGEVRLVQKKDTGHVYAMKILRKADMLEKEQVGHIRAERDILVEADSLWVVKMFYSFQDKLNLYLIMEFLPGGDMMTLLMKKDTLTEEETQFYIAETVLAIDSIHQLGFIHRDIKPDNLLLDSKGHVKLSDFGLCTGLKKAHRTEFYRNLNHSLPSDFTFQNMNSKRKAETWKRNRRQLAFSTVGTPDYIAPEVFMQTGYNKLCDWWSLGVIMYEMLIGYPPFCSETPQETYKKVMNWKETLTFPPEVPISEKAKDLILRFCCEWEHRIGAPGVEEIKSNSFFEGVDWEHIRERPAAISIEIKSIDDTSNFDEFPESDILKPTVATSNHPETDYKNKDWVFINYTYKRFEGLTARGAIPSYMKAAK

[29] = target: TAK1 (Homo sapiens, UniProt O43318)
[30] = target: PIK3CA(H1047L) (Homo sapiens, UniProt P42336, H1047L)
[31] = read-out: CPT-1-70-1 (1μM) % control
[32] = read-out: HYJ-2-002-1 (1μM) % control

Sequence of ULK1 (O75385 whole entry): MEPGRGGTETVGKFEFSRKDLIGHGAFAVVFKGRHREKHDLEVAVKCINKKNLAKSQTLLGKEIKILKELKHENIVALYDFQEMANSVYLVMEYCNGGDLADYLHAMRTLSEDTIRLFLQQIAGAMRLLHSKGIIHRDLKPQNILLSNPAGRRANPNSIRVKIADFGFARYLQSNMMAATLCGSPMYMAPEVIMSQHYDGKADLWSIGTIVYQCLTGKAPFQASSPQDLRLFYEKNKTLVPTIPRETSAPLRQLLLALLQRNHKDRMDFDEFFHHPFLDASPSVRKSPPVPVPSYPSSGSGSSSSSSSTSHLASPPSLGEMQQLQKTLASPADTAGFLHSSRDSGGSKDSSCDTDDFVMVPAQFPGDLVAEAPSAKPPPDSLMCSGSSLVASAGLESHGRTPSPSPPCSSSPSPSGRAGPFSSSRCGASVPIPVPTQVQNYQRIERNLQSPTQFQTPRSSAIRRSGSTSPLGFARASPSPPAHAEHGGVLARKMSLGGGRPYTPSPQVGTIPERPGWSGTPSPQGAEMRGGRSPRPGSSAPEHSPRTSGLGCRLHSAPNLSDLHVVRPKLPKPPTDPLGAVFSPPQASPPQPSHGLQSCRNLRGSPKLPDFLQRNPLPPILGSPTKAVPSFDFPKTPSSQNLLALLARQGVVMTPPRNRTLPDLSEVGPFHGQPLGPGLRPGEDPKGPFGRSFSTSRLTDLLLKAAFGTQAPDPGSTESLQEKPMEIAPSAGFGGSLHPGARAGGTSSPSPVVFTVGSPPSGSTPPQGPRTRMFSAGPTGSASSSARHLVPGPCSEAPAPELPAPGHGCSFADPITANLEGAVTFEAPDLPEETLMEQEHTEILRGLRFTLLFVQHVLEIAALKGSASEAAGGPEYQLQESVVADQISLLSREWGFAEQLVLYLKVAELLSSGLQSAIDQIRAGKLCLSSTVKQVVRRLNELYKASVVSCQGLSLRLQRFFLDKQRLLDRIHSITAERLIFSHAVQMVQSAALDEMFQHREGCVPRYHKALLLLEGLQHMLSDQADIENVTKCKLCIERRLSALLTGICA

Question: With `CN1CCN(c2ccc(Nc3nc(Oc4ccc(NC(=O)CCl)cc4)c4cc[nH]c4n3)cc2)CC1` [CPT1-70-1] as the compound, how does the remaining activity at 1 µM [1, 31] read?
Answer: 100%

Question: What about the remaining activity at 1 µM [2, 31] of the same compound?
Answer: 61%

Question: What about the remaining activity at 1 µM [3, 31] of the same compound?
Answer: 32%

Question: What about the remaining activity at 1 µM [4, 31] of the same compound?
Answer: 100%

Question: What about the remaining activity at 1 µM [5, 31] of the same compound?
Answer: 40%

Question: And the remaining activity at 1 µM [6, 31]?
Answer: 29%

Question: What about the remaining activity at 1 µM [7, 31] of the same compound?
Answer: 23%

Question: And the remaining activity at 1 µM [8, 31]?
Answer: 25%

Question: What about the remaining activity at 1 µM [9, 31] of the same compound?
Answer: 63%

Question: And the remaining activity at 1 µM [10, 31]?
Answer: 74%

Question: And the remaining activity at 1 µM [11, 31]?
Answer: 100%

Question: And the remaining activity at 1 µM [12, 31]?
Answer: 64%

Question: What about the remaining activity at 1 µM [13, 31] of the same compound?
Answer: 100%

Question: What about the remaining activity at 1 µM [14, 31] of the same compound?
Answer: 28%

Question: What about the remaining activity at 1 µM [15, 31] of the same compound?
Answer: 100%

Question: And the remaining activity at 1 µM [16, 31]?
Answer: 78%

Question: And the remaining activity at 1 µM [17, 31]?
Answer: 100%

Question: What about the remaining activity at 1 µM [18, 31] of the same compound?
Answer: 100%

Question: And the remaining activity at 1 µM [19, 31]?
Answer: 100%

Question: What about the remaining activity at 1 µM [20, 31] of the same compound?
Answer: 65%

Question: What about the remaining activity at 1 µM [21, 31] of the same compound?
Answer: 100%

Question: What about the remaining activity at 1 µM [22, 31] of the same compound?
Answer: 100%

Question: What about the remaining activity at 1 µM [23, 31] of the same compound?
Answer: 100%

Question: And the remaining activity at 1 µM [24, 31]?
Answer: 79%

Question: What about the remaining activity at 1 µM [25, 31] of the same compound?
Answer: 55%

Question: And the remaining activity at 1 µM [26, 31]?
Answer: 8.1%

Question: What about the remaining activity at 1 µM [27, 31] of the same compound?
Answer: 64%

Question: What about the remaining activity at 1 µM [28, 31] of the same compound?
Answer: 37%

Question: And the remaining activity at 1 µM [29, 31]?
Answer: 3.6%

Question: And the remaining activity at 1 µM [30, 31]?
Answer: 100%

Question: Which remaining activity at 1 µM [1, 32] does the source give for `CCN1CCN(Cc2ccc(NC(=O)c3ccc(C)c(CCc4cnc5[nH]ccc5c4OC)c3)cc2C(F)(F)F)CC1` [HYJ-2-002-1] here?
Answer: 100%

Question: What about the remaining activity at 1 µM [2, 32] of the same compound?
Answer: 100%

Question: What about the remaining activity at 1 µM [3, 32] of the same compound?
Answer: 89%

Question: And the remaining activity at 1 µM [4, 32]?
Answer: 100%

Question: What about the remaining activity at 1 µM [5, 32] of the same compound?
Answer: 6.4%

Question: What about the remaining activity at 1 µM [6, 32] of the same compound?
Answer: 98%

Question: What about the remaining activity at 1 µM [7, 32] of the same compound?
Answer: 100%

Question: What about the remaining activity at 1 µM [8, 32] of the same compound?
Answer: 100%

Question: What about the remaining activity at 1 µM [9, 32] of the same compound?
Answer: 100%

Question: And the remaining activity at 1 µM [10, 32]?
Answer: 100%

Question: What about the remaining activity at 1 µM [11, 32] of the same compound?
Answer: 74%

Question: What about the remaining activity at 1 µM [12, 32] of the same compound?
Answer: 100%

Question: What about the remaining activity at 1 µM [13, 32] of the same compound?
Answer: 100%

Question: And the remaining activity at 1 µM [14, 32]?
Answer: 4.2%

Question: And the remaining activity at 1 µM [15, 32]?
Answer: 100%

Question: What about the remaining activity at 1 µM [16, 32] of the same compound?
Answer: 100%

Question: What about the remaining activity at 1 µM [17, 32] of the same compound?
Answer: 100%

Question: And the remaining activity at 1 µM [18, 32]?
Answer: 100%

Question: What about the remaining activity at 1 µM [19, 32] of the same compound?
Answer: 38%

Question: What about the remaining activity at 1 µM [20, 32] of the same compound?
Answer: 18%

Question: What about the remaining activity at 1 µM [21, 32] of the same compound?
Answer: 100%

Question: What about the remaining activity at 1 µM [22, 32] of the same compound?
Answer: 5.3%

Question: And the remaining activity at 1 µM [23, 32]?
Answer: 96%

Question: And the remaining activity at 1 µM [24, 32]?
Answer: 100%

Question: What about the remaining activity at 1 µM [25, 32] of the same compound?
Answer: 100%

Question: And the remaining activity at 1 µM [26, 32]?
Answer: 8.2%

Question: And the remaining activity at 1 µM [27, 32]?
Answer: 72%

Question: What about the remaining activity at 1 µM [28, 32] of the same compound?
Answer: 100%

Question: And the remaining activity at 1 µM [29, 32]?
Answer: 6.6%

Question: And the remaining activity at 1 µM [30, 32]?
Answer: 100%
